{"source": "paper PMC6691805", "about": "(Journal of Enzyme Inhibition and Medicinal Chemistry, 2019)", "target": "T1, 17β-HSD1 (Homo sapiens, UniProt P14061)", "T1 sequence (P14061 1-328)": "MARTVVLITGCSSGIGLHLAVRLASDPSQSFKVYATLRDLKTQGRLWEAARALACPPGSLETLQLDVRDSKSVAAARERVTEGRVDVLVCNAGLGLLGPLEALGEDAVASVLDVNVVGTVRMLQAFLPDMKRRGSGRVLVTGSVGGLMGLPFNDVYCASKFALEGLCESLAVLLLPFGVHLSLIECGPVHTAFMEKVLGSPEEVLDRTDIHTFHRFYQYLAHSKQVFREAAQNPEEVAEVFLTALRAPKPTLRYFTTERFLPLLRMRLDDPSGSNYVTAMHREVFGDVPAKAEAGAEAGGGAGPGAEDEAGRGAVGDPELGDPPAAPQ", "assay_type": "biochemical", "data": [{"compound": "COC(=O)CO[C@@H]1CC(=O)[C@@]2(C)CC[C@@H]3c4ccc(OCc5ccccc5)cc4CC[C@H]3[C@H]12", "note": "[Compound 22, 3-Benzyloxy-15β-(2’-methoxy-2’-oxoethoxy)-estra-1,3,5(10)-trien-17-one]", "values": [{"measurement": "cofactor preference in terms of RIP values, favouring the NADPH bound enzyme", "setting": "cofactor preference for NADPH in terms of RIP values", "result": "2–11 fold"}, {"measurement": "17β-HSD1 inhibitory effect (in words)", "setting": "evaluation of potentials obtained with NADPH", "result": "potent inhibitors"}]}]}
